In US20210393722A1, “COMPOSITION FOR IMPROVING SKIN BARRIER DAMAGE AND/OR ALLEVIATING SKIN INFLAMMATION, CONTAINING 3,5-DICAFFEOYLQUINIC ACID AS ACTIVE INGREDIENT” (KOREA UNIVERSITY RESEARCH AND BUSINESS FOUNDATION, priority 2018, published 2021):

Key:
Assay type in all cases: cell-based, human
HaCaT cells [1] = assay: Western blot of protein expression in HaCaT cells treated with DNCB or SDS with AG extract (Example 3); conditions: GSK0660 along with the AG extract
Experimental: (§1) HaCaT cells (human keratinocytes) were cultured in Dulbecco's modified Eagle's medium (DMEM) containing 10% fetal bovine serum (FBS) and 1% antibiotic-antimycotic solution at 37° C. in a 5% CO2 incubator. The cell culture medium was replaced with fresh DMEM every 48-72 hours. HaCaT cells within 5-17 passages were plated at a density of 1×10^4 cells per well in an 8-well chamber slide, or at a density of 1×10^6 cells per well in a 6-well culture plate in DMEM containing […] and 1% antibiotic-antimycotic solution. The cells were cultured for 24-48 hours in a 5% CO2 incubator at 37° C. Then, the medium was replaced with DMEM containing 1% fetal bovine serum. Thereafter, the cells were treated for 24 hours with DNCB (5 μM, Sigma-Aldrich, Louis, Mo., USA) or SDS (30 μM, Sigma-Aldrich) along with the AG extract (50 μg) and the PPARδ antagonist GSK0660 (Sigma-Aldrich). In addition, the cells were treated with 1 μM 3,5-dicaffeoylquinic acid (3,5-DCQA). The HaCaT cells were donated by Dr. Sang-Wook Son. All the reagents for cell culture were purchased from Welgene Inc. (Daegu, Korea). The concentrations of all the reagents were final concentrations.
For evaluation of the protein expression levels of PPARδ, AMPK and SPTLC2 in the HaCaT cells treated with SDS or DNCB together with AG, western blot was conducted after treating with the conditions of Example 2.
The concentration of the proteins in the sample was estimated by the Bradford method. 10 μg of the extracted proteins were loaded onto 10% sodium dodecyl sulfate (SDS)-polyacrylamide gel, and protein blotting on nitrocellulose membrane was performed for 90 minutes. The membrane was blocked overnight with 5% skim milk and washed 3 times with TBS-T for 10 minutes. Primary antibodies were allowed to bind to the membrane at room temperature for 2 hours. […] Images were processed manually with Kodak GBX developer and fixer reagents (Carestream Health, Inc., Rochester, N.Y., USA) and were analyzed using the Image J program. β-Actin was used as a internal control group for normalization of the loaded proteins.

HaCaT cells [2] = assay: Immunocytochemistry of keratin, involucrin, β-defensin 1 and TNFα in HaCaT cells treated with DNCB or SDS with AG extract (Example 4); conditions: AG extract plus GSK0660
Experimental: as §1
In order to evaluate the expression of β-defensin 1, a representative β-defensin, together with skin barrier constituents such as keratin and involucrin and the inflammatory cytokine TNFα, immunocytochemistry (ICC) was conducted after treating with the condition of Example 2.
Cells in a chamber slide were fixed with ice-cold methanol for 15 minutes. The fixed cells were treated with a 0.3% hydrogen peroxide (H2O2) solution containing 0.3% normal horse serum for 5 minutes to remove peroxidase activity in the cells. After washing with PBS for 5 minutes, the cells were incubated with diluted normal blocking serum for 20 minutes, followed by treatment with diluted primary antibodies for 1 hour. The primary antibodies for involucrin and TNFα were purchased from Novus (Littleton, Colo. 80120, USA). The primary antibody for β-defensin 1 was purchased from Santa Cruz Biotechnology, Inc. (Dallas, Tex., USA), and the primary antibody for pan-keratin was purchased from Abcam (Cambridge, UK). After washing with PBS, the cells were treated with secondary antibodies for 30 minutes. After washing with PBS, the cells were treated with a premixed Vectastain ABC reagent solution for 30 minutes. […]
The protein extracts were electrophoresed on 10% polyacrylamide gel and blotted to a nitrocellulose membrane. […] The density for bands on the X-ray film was analyzed with the Image J program. […] Images were taken at 200× magnification, and the densities for the images were analyzed with the Image J program. The results were expressed as mean±SEM. The values were statistically analyzed by unpaired t-test. […]

HaCaT cells [3] = assay: Western blot for TRPV4, PPARδ and AMPK in HaCaT cells treated with antagonists for TRPV4, PPARδ or AMPK (Example 6); conditions: HaCaT treated with antagonist
Experimental: (§2) Western blot was conducted for TRPV4, AMPK and PPARδ in HaCaT cells treated with antagonists for TRPV4, PPARδ and AMPK. The HaCaT cells fixed on a slide chamber were immunohistochemically stained with antibodies for keratin, involucrin, defensin and TNFα. Images were taken at 200× magnification, and the densities for the images were analyzed with the Image J program. The protein extracts were electrophoresed on 10% polyacrylamide gel and blotted to a nitrocellulose membrane. The nitrocellulose membrane was bound with primary and secondary antibodies sequentially, and then chemiluminescence was exposed to an X-ray film. The density for bands on the X-ray film was analyzed with the Image J program. The results were expressed as mean±SEM. The values were statistically analyzed by unpaired t-test. All the experiments were repeated three times.
To determine the priority of major regulators which are TRPV4, PPARδ and AMPK, the protein expression level of TRPV4, PPARδ and AMPK in HaCaT cells treated with antagonists for TRPV4, PPARδ or AMPK was measured by western blot.

HaCaT cells [4] = assay: Immunohistochemical staining of HaCaT cells treated with antagonists for TRPV4 and AMPK (Example 5); conditions: HaCaT treated with antagonist; compared to the control group
Experimental: To investigate the effect of TRPV4 and AMPK on the expression of biomarkers related to skin barrier constituents, defense and inflammation, the protein expression for keratin, involucrin, β-defensin and TNFα was evaluated by immunohistochemical staining of HaCaT cells treated with antagonists for TRPV4 and AMPK.
as §2

HaCaT cells [5] = assay: Western blot of protein expression in HaCaT cells treated with 3,5-DCQA (Example 7); conditions: 1 μM 3,5-DCQA
Experimental: as §1
In order to measure the protein expression of TRPV4, PPARδ, AMPK and SPTLC2 in HaCaT cells treated with 3,5-dicaffeoylquinic acid, western blot was performed after treating with the condition of Example 2.

HaCaT cells [6] = assay: Immunohistochemical staining of HaCaT cells treated with 3,5-DCQA (Example 8); conditions: 1 μM 3,5-DCQA
Experimental: as §1
In order to measure the protein expression of keratin, involucrin, β-defensin and TNFα in HaCaT cells treated with 3,5-dicaffeoylquinic acid, immunohistochemical staining was performed after treating with the condition of Example 2.
The protein extracts were electrophoresed on 10% polyacrylamide gel and blotted to a nitrocellulose membrane. The nitrocellulose membrane was bound with primary and secondary antibodies sequentially, and then chemiluminescence was exposed to an X-ray film. The density for bands on the X-ray film was analyzed with the Image J program. The HaCaT cells fixed on a slide chamber were immunohistochemically stained with antibodies for keratin, involucrin, defensin and TNFα. Images were taken at 200× magnification, and the densities for the images were analyzed with the Image J program. The results were expressed as mean±SEM. The values were statistically analyzed by unpaired t-test. All the experiments were repeated three times.

COC(=O)c1sccc1S(=O)(=O)Nc1ccc(Nc2ccccc2)cc1OC [GSK0660]
AG extract-induced increase in the expression of P-AMPK (HaCaT cells [1]): reduced | AG extract-induced increase in the expression of PPARδ (HaCaT cells [1]): reduced | AG extract-induced increase in the expression of SPTLC2 (HaCaT cells [1]): reduced | AG extract-increased involucrin protein expression (HaCaT cells [2]): offset | AG extract-increased keratin protein expression (HaCaT cells [2]): offset | AG extract-increased β-defensin 1 protein expression (HaCaT cells [2]): offset | effect of the AG extract on TNFα expression (HaCaT cells [2]): offset | protein expression level for PPARδ (HaCaT cells [3]): lowered | protein expression level for TRPV4 (HaCaT cells [3]): did not change | protein expression level for p-AMPK (HaCaT cells [3]): lowered

c1cc(-c2cnn3cc(-c4ccc(OCCN5CCCCC5)cc4)cnc23)ccn1 [compound C]
protein expression of TNFα (HaCaT cells [4]): increased | protein expression of involucrin (HaCaT cells [4]): decreased significantly | protein expression of keratin (HaCaT cells [4]): decreased significantly | protein expression of β-defensin 1 (HaCaT cells [4]): decreased significantly | protein expression level for PPARδ (HaCaT cells [3]): did not affect | protein expression level for TRPV4 (HaCaT cells [3]): did not affect | protein expression level for p-AMPK (HaCaT cells [3]): decreased

O=C(/C=C/c1ccc(O)c(O)c1)O[C@@H]1C[C@](O)(C(=O)O)C[C@@H](OC(=O)/C=C/c2ccc(O)c(O)c2)[C@H]1O [3,5-DCQA, 3,5-dicaffeoylquinic acid]
protein expression of AMPK (HaCaT cells [5]): increased | protein expression of PPARδ (HaCaT cells [5]): increased | protein expression of SPTLC2 (HaCaT cells [5]): increased | expression of TNFα (HaCaT cells [6]): decreased | protein expression of involucrin (HaCaT cells [6]): increased | protein expression of keratin (HaCaT cells [6]): increased | protein expression of β-defensin 1 (HaCaT cells [6]): increased
